Data as given in article PMC6982354, “Promising New Inhibitors of Tyrosyl-DNA Phosphodiesterase I (Tdp 1) Combining 4-Arylcoumarin and Monoterpenoid Moieties as Components of Complex Antitumor Therapy” (International Journal of Molecular Sciences, 2019).

Key:
Tdp1 = target: T1, Tdp1 (Homo sapiens, UniProt Q9NUW8); experiment: Real-time detection of Tdp1 activity (FAM/BHQ1 oligonucleotide biosensor); format: biochemical; details: for IC50: Tdp1 inhibition, 6-point concentration response curve; for Tdp1 inhibitory activity (in words): compared with the other derivatives of the series
T1 construct: made in house
Description: A previously designed, real-time, hexadecameric oligonucleotide biosensor with 5(6)-carboxyfluorescein (FAM) at the 5′ end and fluorophore quencher BHQ1 (Black Hole Quencher-1) at the 3′-end was used to determine the inhibitory properties of the new compounds.
Real-Time Detection of Tdp1 Activity. The Tdp1 activity measurements were carried out as described. […] Tdp1 inhibition was calculated by comparing the rate of increase in fluorescence in the presence of the compound to that of DMSO control wells. IC50 values were determined using a 6-point concentration response curve. The data were imported into the MARS Data Analysis 2.0 program (BMG LABTECH), and the slope during the linear phase (here data from 0 to 7 min) was calculated.

[1] = target: T2, human Tdp1 (residues 149-608) (Homo sapiens, UniProt Q9NUW8); experiment: Intrinsic tryptophan fluorescence quenching binding assay; details: Tdp1 10 µM, 20 mM Tris, 250 mM NaCl, pH 8; triplicate; read-out: dissociation constant (KD)
T2 construct: human Tdp1 (residues 149-608); made in house; host or cells: Escherichia coli BL21 (DE3)
From the text: Derivatives of nopol were the most complex compounds to synthesize and purify. Therefore, they were excluded from further consideration. Since we previously obtained contradictory results in in vivo experiments with the myrtenol derivative 2 (unpublished data), in this work, we decided to focus on geraniol derivatives for the in vivo studies. […] In addition to the activity assay that we reported above, we wanted to confirm the interactions between compound 3ba and Tdp1 before progressing to in vivo studies. Using an intrinsic tryptophan fluorescence quenching assay that we previously applied to study the binding interactions of Tdp1 and its inhibitors, we evaluated the binding of compound 3ba to recombinant Tdp1. Clear quenching of the Tdp1 intrinsic fluorescence was observed upon the addition of 3ba (Supplementary Figure S1). […]
Binding Assay. […] Intrinsic protein fluorescence was measured using PerkinElmer EnSpire Multimode Reader. […] The excitation wavelength was 280 nm and the intrinsic fluorescence was measured at 350 nm. […] Dissociation constants (KD) were calculated using the following formula, that takes nonspecific binding into account. […]
In this formula, I indicates changes in fluorescence intensity from the titration, Imax indicates the maximum fluorescence intensity change, [Lᴛ] is the titration ligand concentration, and Ns is the non-specific term. […]

Krebs-2 carcinoma = experiment: Influence on antitumor effect of tpc, Krebs-2 ascites tumor model; format: in vivo, mice; details: for weight of the ascitic tumor: compared to only tpc
Description: A study of the influence of 3ba on the antitumor effect of tpc (topotecan) was performed using a murine Krebs-2 carcinoma model. An ascitic tumor model combines the advantages of in vitro and in vivo approaches in studying the cytotoxic effect of compounds, since ascitic cells grow in the context of the organism (in vivo), and the intraperitoneal administration of drug ensures its direct contact with tumor cells (in vitro). The experiments were performed using female C57BL/6 mice, which were injected intraperitoneally with 2 × 10^5 ascitic cells on day zero. The mice were divided into six groups of ten animals each.
(§1) Lab animals. Thre-e to four-month-old male and female C57Bl/6 mice from the breeding colony of the Institute of Cytology and Genetics, SB RAS, were used in the study. The animals were kept on sawdust in plastic cages with 5–7 mice per cage, with free access to ground food (“Laboratorkorm”, Moskow, Russia) and tap water. All experiments were performed in accordance with protocols approved by the Animal Care and Use Committee of the Institute of Cytology and Genetics. Also, all experimental procedures were performed in accordance with the Directive 2010/63/EU for animal experiments.
(§2) Tumor models. The experimental tumor used was Lewis Lung Carcinoma (LLC) and Krebs-2. The animals were treated with tpc and the Tdp1 inhibitor 3ba two days after tumor transplantation. The tumor was transplanted into the muscles of the thigh by 0.2 million cells per mouse. Tpc (Sindan Pharma SRL, Romania) was administered intraperitoneally at a single dose of 0.5 mg/kg; Tdp1 inhibitor 3ba was administrated intraperitoneally at a single dose of 20, 40, or 80 mg/kg (for Krebs-2), or 120 mg/kg (for LLC) in 15% dimethyl sulfoxide (DMSO)–10% Tween-80 suspension in water (0.2 mL of suspension per mouse) simultaneously with tpc. Control mice were injected with a DMSO-Tween-80 mixture into the stomach.
(§3) Statistical analysis. The experimenter measuring and calculating the primary animal data (tumor size, lifespan) was blinded. After unblinding, the animal data were statistically processed using oneway ANOVA. Post-hoc testing was completed using Turkey’s Honestly Significant Difference (HSD). p < 0.05 was considered to be statistically significant. The statistical package […] version 12.5 was used for analysis. All results are expressed as mean ± SEM.

Lewis carcinoma = experiment: Lifespan of mice with ascites variant of Lewis carcinoma; format: in vivo; details: for prolongation of life: monotherapy at selected doses (tpc 0.5 mg/kg or 3ba 120 mg/kg), unreliable, p > 0.05; for increase in lifespan: tpc + 3ba 120 mg/kg
Description: We then examined the effect of 3ba in combination with tpc on the lifespan of mice. C57BL/6 mice were intraperitoneally inoculated with the ascites variant of Lewis carcinoma. Group 1: control without treatment; group 2: tpc 0.5 mg/kg intraperitoneally; group 3: tpc and 3ba intraperitoneally 120 mg/kg; and group 4: 3ba 120 mg/kg only.
as §1, §2, §3

T1 sequence (Q9NUW8 whole entry): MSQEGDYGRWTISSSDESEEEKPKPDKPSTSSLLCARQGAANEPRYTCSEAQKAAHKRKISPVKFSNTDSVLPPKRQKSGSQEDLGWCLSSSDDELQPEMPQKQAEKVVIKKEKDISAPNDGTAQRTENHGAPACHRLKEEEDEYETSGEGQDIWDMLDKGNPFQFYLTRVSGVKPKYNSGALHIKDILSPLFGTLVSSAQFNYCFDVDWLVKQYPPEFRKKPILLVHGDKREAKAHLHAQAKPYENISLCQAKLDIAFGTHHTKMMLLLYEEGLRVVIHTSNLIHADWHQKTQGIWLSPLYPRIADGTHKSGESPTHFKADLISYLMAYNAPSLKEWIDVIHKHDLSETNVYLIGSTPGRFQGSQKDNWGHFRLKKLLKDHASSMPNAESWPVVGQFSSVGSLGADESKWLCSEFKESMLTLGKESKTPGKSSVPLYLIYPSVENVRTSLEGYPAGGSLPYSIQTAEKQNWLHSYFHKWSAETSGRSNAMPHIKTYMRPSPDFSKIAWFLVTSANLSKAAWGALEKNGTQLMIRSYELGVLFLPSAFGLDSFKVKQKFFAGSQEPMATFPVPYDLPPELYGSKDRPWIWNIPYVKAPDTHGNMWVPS
T2 sequence (Q9NUW8 149-608): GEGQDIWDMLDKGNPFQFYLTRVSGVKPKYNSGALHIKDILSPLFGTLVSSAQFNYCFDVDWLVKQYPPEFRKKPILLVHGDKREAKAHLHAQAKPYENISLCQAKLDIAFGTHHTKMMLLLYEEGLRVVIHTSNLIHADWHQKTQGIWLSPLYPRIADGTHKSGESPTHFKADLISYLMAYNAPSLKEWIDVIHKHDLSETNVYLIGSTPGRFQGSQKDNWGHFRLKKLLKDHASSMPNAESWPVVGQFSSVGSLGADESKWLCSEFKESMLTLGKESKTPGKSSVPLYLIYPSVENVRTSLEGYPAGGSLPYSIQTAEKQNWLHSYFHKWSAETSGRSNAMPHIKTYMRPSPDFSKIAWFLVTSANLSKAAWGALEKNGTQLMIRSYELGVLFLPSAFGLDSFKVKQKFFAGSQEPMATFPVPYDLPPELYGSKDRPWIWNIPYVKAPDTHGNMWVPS

IC50 (Tdp1) [nM]	Compound	other results
490 ± 140	CC(C)=CCC/C(C)=C/COc1ccc2c(-c3ccccc3)cc(=O)oc2c1 [3aa, (E)-7-(3,7-Dimethylocta-2,6-dienyloxy)-4-phenyl-2H-chromen-2-one]	
410 ± 120	CC1(C)[C@H]2CC=C(CCOc3ccc4c(-c5ccccc5)cc(=O)oc4c3)[C@@H]1C2 [3ab, 7-(2-((1R,5S)-6,6-Dimethylbicyclo[3 1.1]hept-2-en-2-yl)ethoxy)-4-phenyl-2H-chromen-2-one]	
460 ± 160	CC1(C)[C@H]2CC=C(COc3ccc4c(-c5ccccc5)cc(=O)oc4c3)[C@@H]1C2 [3ac, 7-(((1R,5S)-6,6-Dimethylbicyclo[3.1.1]hept-2-en-2-yl)methoxy)-4-phenyl-2H-chromen-2-one]	Tdp1 inhibitory activity (in words) (Tdp1): slightly less active
480 ± 110	CC1(C)[C@@H]2CC=C(COc3ccc4c(-c5ccccc5)cc(=O)oc4c3)[C@H]1C2 [3ad, 7-(((1S,5R)-6,6-Dimethylbicyclo[3.1.1]hept-2-en-2-yl)methoxy)-4-phenyl-2H-chromen-2-one]	
7500 ± 700	CC1(C)[C@H]2CC=C(CCOc3ccc4c(-c5ccc(F)cc5)cc(=O)oc4c3)[C@@H]1C2 [3bb, 7-(2-((1R,5S)-6,6-Dimethylbicyclo[3.1.1]hept-2-en-2-yl)ethoxy)-4-(4-fluorophenyl)-2H-chromen-2-one]	Tdp1 inhibitory activity (in words) (Tdp1): markedly lower activity
990 ± 300	CC1(C)[C@H]2CC=C(COc3ccc4c(-c5ccc(F)cc5)cc(=O)oc4c3)[C@@H]1C2 [3bc, 7-(((1R,5S)-6,6-Dimethylbicyclo[3.1.1]hept-2-en-2-yl)methoxy)-4-(4-fluorophenyl)-2H-chromen-2-one]	
1030 ± 580	CC1(C)[C@@H]2CC=C(COc3ccc4c(-c5ccc(F)cc5)cc(=O)oc4c3)[C@H]1C2 [3bd, 7-(((1S,5R)-6,6-Dimethylbicyclo[3.1.1]hept-2-en-2-yl)methoxy)-4-(4-fluorophenyl)-2H-chromen-2-one]	
900 ± 370	CC(C)=CCC/C(C)=C/COc1ccc2c(-c3ccc(Br)cc3)cc(=O)oc2c1 [3ca, (E)-4-(4-Bromophenyl)-7-(3,7-dimethylocta-2,6-dienyloxy)-2H-chromen-2-one]	
590 ± 70	CC1(C)[C@H]2CC=C(CCOc3ccc4c(-c5ccc(Br)cc5)cc(=O)oc4c3)[C@@H]1C2 [3cb, 4-(4-Bromophenyl)-7-(2-((1R,5S)-6,6-dimethylbicyclo[3.1.1]hept-2-en-2-yl)ethoxy)-2H-chromen-2-one]	
3230 ± 350	CC1(C)[C@H]2CC=C(COc3ccc4c(-c5ccc(Br)cc5)cc(=O)oc4c3)[C@@H]1C2 [3cc, 4-(4-Bromophenyl)-7-(((1R,5S)-6,6-dimethylbicyclo[3.1.1]hept-2-en-2-yl)methoxy)-2H-chromen-2-one]	
430 ± 50	CC1(C)[C@@H]2CC=C(COc3ccc4c(-c5ccc(Br)cc5)cc(=O)oc4c3)[C@H]1C2 [3cd, 4-(4-Bromophenyl)-7-(((1S,5R)-6,6-dimethylbicyclo[3.1.1]hept-2-en-2-yl)methoxy)-2H-chromen-2-one]	
910 ± 130	COc1ccc(-c2cc(=O)oc3cc(OCCC4=CC[C@H]5C[C@@H]4C5(C)C)ccc23)cc1 [3db, 7-(2-((1R,5S)-6,6-Dimethylbicyclo[3.1.1]hept-2-en-2-yl)ethoxy)-4-(4-methoxyphenyl)-2H-chromen-2-one]	
590 ± 150	COc1ccc(-c2cc(=O)oc3cc(OCC4=CC[C@H]5C[C@@H]4C5(C)C)ccc23)cc1 [3dc, 7-(((1R,5S)-6,6-Dimethylbicyclo[3.1.1]hept-2-en-2-yl)methoxy)-4-(4-methoxyphenyl)-2H-chromen-2-one]	
590 ± 60	COc1ccc(-c2cc(=O)oc3cc(OCC4=CC[C@@H]5C[C@H]4C5(C)C)ccc23)cc1 [3dd, 7-(((1S,5R)-6,6-Dimethylbicyclo[3.1.1]hept-2-en-2-yl)methoxy)-4-(4-methoxyphenyl)-2H-chromen-2-one]	
2400 ± 800	O=c1cc(-c2ccc(Br)cc2)c2ccc(OCc3ccccc3)cc2o1 [10c, 7-(Benzyloxy)-4-(4-bromophenyl)-2H-chromen-2-one]	
3310 ± 980	COc1ccc(-c2cc(=O)oc3cc(OCc4ccccc4)ccc23)cc1 [10d, 7-(Benzyloxy)-4-(4-methoxyphenyl)-2H-chromen-2-one]	
	CC[C@@]1(O)C(=O)OCc2c1cc1n(c2=O)Cc2cc3c(CN(C)C)c(O)ccc3nc2-1 [tpc, topotecan, reference compound]	number of tumor cells in ascites (Krebs-2 carcinoma; tpc only, 0.5 mg/kg i.p. (group 2), control 1750 million per mouse): 950 mln; prolongation of life (Lewis carcinoma): 13–19%

Compound	IC50 (Tdp1) [nM]	other results
CC(C)=CCC/C(C)=C/COc1ccc2c(-c3ccc(F)cc3)cc(=O)oc2c1 [3ba, (E)-7-(3,7-Dimethylocta-2,6-dienyloxy)-4-(4-fluorophenyl)-2H-chromen-2-one]	620	Kd [1]: 63 ± 11 µM; weight of the ascitic tumor / tumor growth (Krebs-2 carcinoma; 3ba 20 mg/kg i.p. + tpc 0.5 mg/kg i.p. (group 5)): did not affect tumor growth; weight of the ascitic tumor (Krebs-2 carcinoma; 3ba 40 mg/kg i.p. + tpc 0.5 mg/kg i.p. (group 4)): decrease in ascites weight, although the difference between groups 2 and 4 was not significant; weight of the ascitic tumor (Krebs-2 carcinoma; 3ba 80 mg/kg i.p. + tpc 0.5 mg/kg i.p. (group 3)): significant decrease; weight of the ascitic tumor / tumor growth (Krebs-2 carcinoma; 3ba 80 mg/kg i.p. in the absence of tpc (group 6)): did not affect tumor growth; number of tumor cells in ascites (Krebs-2 carcinoma; tpc 0.5 mg/kg + 3ba 80 mg/kg i.p. (group 3), only one mouse gave ascitic fluid): 250 mln; prolongation of life (Lewis carcinoma): 13–19%; increase in lifespan (Lewis carcinoma; compared with mice receiving only tpc, p = 0.0065): 26%; increase in lifespan (Lewis carcinoma; compared with the control group, p = 0.0002): 42%
